This is an account of results in patent US9624167B2, “N-(4-hydroxy-4-methyl-cyclohexyl)-4-phenyl-benzenesulfonamides and N-(4-hydroxy-4-methyl-cyclohexyl)-4-(2-pyridyl)benzenesulfonamides and their therapeutic use” (PIMCO 2664 LIMITED, priority 2013, dated 2017).

pIC50: −log10 of the molar value. In brackets after ≈: the same amount, converted by molar mass.

The subject of one series is J774 macrophages. The series can be described thus: Resazurin Macrophage J774 Viability Assay. Particulars: Mus musculus, 6 point concentration range 10 μM to 10 nM, n = 3 replicates, mean of 2 independent experiments, 72 hour incubation, read-out: IC50 (1). It counts as cell-based. As for the experimental part: Potency was assessed using a viability assay based on the survival of the J774 macrophage cell line. Macrophages are closely related to osteoclasts and have been used previously as a model system for osteoclast survival (see, e.g., Luckman et al., 1998, “Heterocycle-containing bisphosphonates cause apoptosis and inhibit bone resorption by preventing protein prenylation: evidence from structure-activity relationships in J774 macrophages,” J. Bone Miner. Res., Vol. 13, pp. 1668-1678). The model is indicative both of effects on bone protection in diseases such as osteoporosis, osteoarthritis and rheumatoid arthritis, and of effects on inflammation since, like osteoclasts, J774 macrophages are dependent for survival on continued NFκB activation.
In vitro potency of test compounds was determined by incubation with J774 macrophages and subsequent determination of cell viability using resazurin.
Resazurin is a redox dye commonly used as an indicator of viability in cultured cells (see, e.g., Anoopkumar-Dukie, 2005, British Journal of Radiology, Vol. 78, pp. 945-947). It is non-toxic to cells and stable in culture medium, allowing continuous measurement of cell proliferation in vitro as either a kinetic or endpoint assay. The assay is based on the ability of viable, metabolically-active cells to reduce resazurin (which is blue and non-fluorescent) to resorufin and dihydroresorufin (which are red and fluorescent) using electrons from reducing species, such as nicotinamide adenine dinucleotide (NADPH) and flavin adenine dinucleotide (FADH). This transformation, from oxidised form to reduced form, can be measured either colorimetrically or fluorometrically. Insults that impair cell viability and proliferation also affects the capacity of cells to reduce resazurin, and the rate of dye reduction is directly proportional to the number of viable cells present.
For fluorescence measurements, 530-560 nm excitation and 590 nm emission wavelengths are typically used. For colorimetric measurements, absorbance at 570 nm (reduced form) and 600 nm (oxidised form) is typically measured. A simple calculation is performed to determine the relative quantities of the two species: a high ratio of resorufin (the reduced form) to resazurin (the oxidised form) is an indicator that cells are proliferating and viable. A low ratio indicates cells that are quiescent or non-viable.
J774 cells were plated at 10^4 cells per well in 100 μL αMEM (α Modified Eagle Medium) in 96-well plates and allowed to adhere overnight. The following day, test compounds were prepared as 100 mM solutions in DMSO. These stock solutions were diluted in DMSO and then diluted 1000× in culture medium (αMEM) before being added directly to the wells so as to give the desired final compound concentration. After a 72 hour incubation at 37° C./5% CO2, resazurin (Alamar Blue, Biosource International) was added to each well (1:10 v/v, 10 μL). The plate was then incubated at 37° C. for 3 hours and fluorescence was measured at 590 nm, with a 25 nm bandwidth.
The average results for each test compound were expressed as a percent (%) of the average control value reflecting cell viability. The average values across the concentrations tested were then plotted and the IC50 for was calculated by fitting the data to a 4-parameter IC50 equation using software from Grafit (Erithacus Software). Each experiment was repeated twice and the data are presented as the mean IC50 from both experiments.

Series [1] in a line: Aqueous (FaSSIF) solubility. It counts as physicochemical. Particulars: fasted state simulated intestinal fluid (FaSSIF), kinetic from dmso stock, pH 6.5, three replicates, 16 hours, read-out: Solubility (1). As for the experimental part:
Solubility was measured by equilibration of the compound in fasted state simulated intestinal fluid (FaSSIF) and quantified by high-performance liquid chromatography (HPLC).
Aqueous solubility was measured by equilibration of compounds with fasted state simulated intestinal fluid (FaSSIF) and quantified spectrophotometrically.
FaSSIF was prepared as described below:
Preparation of blank FaSSIF: 0.21 g of sodium hydroxide (NaOH) pellets, 1.97 g of dihydrogen sodium phosphate (NaH2PO4.2H2O) and 3.09 g of sodium chloride (NaCl) were dissolved in 400 mL of deionised water. […]
Preparation of FaSSIF: 0.056 g of SIF Powder (containing sodium taurocholate and lecithin) (Phares AG) was dissolved in 25 mL of blank FaSSIF and stirred until the powder was completely dissolved. The solution was allowed to stand for 2 hours during which it became opalescent; it was used within 24 hours. The final solution composition was characterised as follows: • Sodium taurocholate: 3 mM • Lecithin: 0.75 mM • Osmolarity: 270±10 mOsmol • pH: 6.5
The optical density was measured at the end of the incubation period for test compounds and a reference used to determine solubility. In brief, two samples were prepared for each determination: a reference sample consisting of a stock solution of test compound in DMSO diluted in system solution (a phosphate free, low absorption buffer) and propanol; and a test sample (prepared in triplicate) consisting of 0.5 mL FaSSIF spiked with test compound at 0.2 mM. Each sample was incubated at room temperature for 16 hours with constant shaking at 250 rpm. At the end of the incubation period, 0.3 mL of each sample was filtered through a pION filter plate (PION, Woburn Mass.), diluted 1:1 with propanol and scanned using UV spectrophotometry at λmax ([…]) using a Spectra Max Plus—Version 2.1000 (Molecular Devices, Sunnyvale, Calif.), with μSOL Explorer solubility determination software (pION, Woburn, Mass.).
FaSSIF solubility was calculated using the following formula:
[formula] wherein: • “OD” is the optical density; • “Cr” is the concentration of the reference (33.4 μM); and • “molecular weight” is for the test compound (e.g., 381.44 for ABD735).

The target of a further series is T1, hERG (Homo sapiens, UniProt Q12809).
T1 construct: expressed in transfected cells; host or cells: Chinese Hamster Ovary cells (hERG-CHO), stably transfected
Nature of the series: hERG Ion Channel Assay (Q-patch, hERG-CHO cells). The class given is cell-based. Particulars: human, CHO cells stably transfected with hERG (hERG-CHO), pH 7.4, 30 μM, hERG tail current. As for the experimental part: (§1) The activity of the compounds against the hERG ion channel was tested. The assay was conducted using the automated path-clamp, Q-patch method using stably transfected Chinese Hamster Ovary cells (hERG-CHO). hERG-CHO cells were cultured in F-12 Kaighn's Nutrient Mixture medium (Invitrogen)+10% FBS at 37° C. for 1-3 days. Cells were kept at 30° C. for 24 to 48 hours prior to patch clamping in order to increase the hERG current amplitude. Subsequently, the cells were harvested by trypsinisation, and kept in Serum Free Medium (SFM) in the Q-patch cell preparation state for up to 6 hours at room temperature before being washed and re-suspended in extracellular solution and applied to the patch clamp sites for data recording.
(§2) Patch-clamp voltage protocol: After whole cell configuration was achieved, the cell was held at −80 mV. A 50 millisecond pulse to −40 mV was delivered to measure the leaking current, which was subtracted from the tail current on-line. Then the cell was depolarized to +20 mV for 2 seconds, followed by a one second pulse to −40 mV to reveal hERG tail current. This paradigm was delivered once every 5 seconds to monitor the current amplitude.
(§3) Extracellular solution: 137 mM NaCl, 4 mM KCl, 1.8 mM CaCl2, 1 mM MgCl2, 10 mM D(+)-glucose, 10 mM HePES buffer (pH adjusted to 7.4 with NaOH).
(§4) After the whole cell configuration was achieved, the extracellular solution (control) was applied first and the cell was stabilized for 2 minutes in extracellular solution. The test compound was then applied from low concentrations to high concentrations cumulatively. The cell was incubated with each test concentration for 5 minutes. During each incubation, the cell was repetitively stimulated using the voltage protocol described above, and the tail current amplitude was continuously monitored.
(§5) • (1) Peak tail current >100 pA in control. • (2) Initial run-down <30% and the run-down stops before first application of the test compound. • (3) Leak currents <50% of the control peak tail currents at any time. • (4) rs<20 MΩ throughout the experiment.
(§6) The degree of inhibition (%) was obtained by measuring the tail current amplitude, induced by a one second test pulse to −40 mV after a two second pulse to +20 mV, before and after incubation with the test compound. The difference in current was normalized to control and multiplied by 100 in order to obtain the percent inhibition.
(§7) Concentration (log) response curves were fitted to a logistic equation (three parameters assuming complete block of the current at very high test compound concentrations) to generate estimates of the 50% inhibitory concentration (IC50). The concentration-response relationship of each compound was constructed from the percentage reductions of current amplitude by sequential concentrations.
For orientation: hERG is a cardiac potassium channel; its block is linked to QT prolongation.

The next series addresses T2, hERG ion channel (Homo sapiens, UniProt Q12809).
T2 construct: expressed in transfected cells; host or cells: Chinese Hamster Ovary cells (hERG-CHO), stably transfected
Nature of the series: hERG Ion Channel Assay (Q-patch, hERG-CHO cells). It counts as cell-based. Particulars: hERG tail current, hERG-CHO cells, Q-patch; read-out: IC50 (1). How it is done: as §1, §2, §3, §4, §5, §6, §7

T2 sequence (Q12809 whole entry): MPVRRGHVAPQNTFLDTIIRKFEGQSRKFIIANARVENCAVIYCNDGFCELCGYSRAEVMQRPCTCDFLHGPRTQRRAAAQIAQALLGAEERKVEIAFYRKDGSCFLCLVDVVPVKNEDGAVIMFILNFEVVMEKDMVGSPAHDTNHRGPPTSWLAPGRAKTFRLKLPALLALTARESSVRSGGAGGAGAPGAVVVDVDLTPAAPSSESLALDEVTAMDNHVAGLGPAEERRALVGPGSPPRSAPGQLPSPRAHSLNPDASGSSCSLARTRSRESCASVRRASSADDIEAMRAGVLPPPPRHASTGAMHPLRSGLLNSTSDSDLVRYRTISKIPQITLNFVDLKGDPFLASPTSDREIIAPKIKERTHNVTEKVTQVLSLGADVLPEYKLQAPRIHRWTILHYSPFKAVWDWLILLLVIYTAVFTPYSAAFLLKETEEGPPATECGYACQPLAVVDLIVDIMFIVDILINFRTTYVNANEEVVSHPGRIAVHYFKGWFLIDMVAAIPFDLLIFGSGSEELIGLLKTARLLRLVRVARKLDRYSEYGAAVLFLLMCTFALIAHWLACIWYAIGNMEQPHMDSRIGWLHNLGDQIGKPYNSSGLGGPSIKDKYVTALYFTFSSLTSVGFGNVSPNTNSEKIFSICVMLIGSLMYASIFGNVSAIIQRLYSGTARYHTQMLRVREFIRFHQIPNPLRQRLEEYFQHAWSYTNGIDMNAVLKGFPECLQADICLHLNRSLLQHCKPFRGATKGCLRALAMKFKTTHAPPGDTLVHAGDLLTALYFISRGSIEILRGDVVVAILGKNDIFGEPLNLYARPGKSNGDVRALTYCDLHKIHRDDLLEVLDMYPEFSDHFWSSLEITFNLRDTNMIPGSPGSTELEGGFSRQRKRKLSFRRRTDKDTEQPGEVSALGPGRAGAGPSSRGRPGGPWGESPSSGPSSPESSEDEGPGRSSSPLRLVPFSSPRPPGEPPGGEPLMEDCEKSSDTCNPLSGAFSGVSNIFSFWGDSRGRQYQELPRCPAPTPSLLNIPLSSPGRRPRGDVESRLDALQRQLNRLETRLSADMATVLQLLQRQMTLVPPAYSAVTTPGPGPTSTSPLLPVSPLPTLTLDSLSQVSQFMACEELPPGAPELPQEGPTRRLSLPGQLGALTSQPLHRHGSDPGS
T1 sequence (Q12809 whole entry): as above

In general, pIC50 refers to −log10 of the IC50, conventionally taken in molar units. What is called solubility is the dissolved amount per volume that the medium holds. What is called inhibition is the relative decrease from the control value, in per cent. Lower therefore signals a weak effect. In the case of `O=S(=O)(N[C@H]1CC[C@H](O)CC1)c1ccc(-c2ccc(F)cc2F)cc1` [ABD599, reference compound], the negative logarithm of the IC50 (pIC50) in the series on J774 macrophages is 6.72; on hERG ion channel, 5.31. The solubility at 16 h in series [1] was 30 µg/mL (≈ 81.7 µM). Besides, the inhibition at 5 min, 30 µM against hERG is 85%.
